Data as given in publication PMC6028563, “Probing Substituents in the 1- and 3-Position: Tetrahydropyrazino-Annelated Water-Soluble Xanthine Derivatives as Multi-Target Drugs With Potent Adenosine Receptor Antagonistic Activity” (Frontiers in Chemistry, 2018).
Like-named read-outs stand apart in the source and are kept apart here.

Columns and labels:
human A2A AR = molecular target: T1, human A2A AR (Homo sapiens, UniProt P29274); assay: Radioligand binding assay at human A2A AR vs. [^3H]MSX-2; conditions: CHO cell membranes, n = 3, read-out: Ki ± SEM, A2A vs. [^3H]MSX-2
T1 construct: expressed in transfected cells; host or cells: CHO cells
T1 sequence (P29274 whole entry): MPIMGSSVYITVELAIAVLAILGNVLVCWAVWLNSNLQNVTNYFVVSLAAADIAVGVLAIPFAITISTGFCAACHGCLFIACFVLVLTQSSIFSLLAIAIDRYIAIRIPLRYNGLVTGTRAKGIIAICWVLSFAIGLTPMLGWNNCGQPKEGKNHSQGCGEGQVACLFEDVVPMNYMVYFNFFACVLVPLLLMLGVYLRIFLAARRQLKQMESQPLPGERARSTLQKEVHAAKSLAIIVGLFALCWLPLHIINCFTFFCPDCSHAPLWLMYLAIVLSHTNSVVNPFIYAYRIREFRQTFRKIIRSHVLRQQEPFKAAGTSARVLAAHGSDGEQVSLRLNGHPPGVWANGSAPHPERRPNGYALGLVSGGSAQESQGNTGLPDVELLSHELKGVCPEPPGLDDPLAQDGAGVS
In short: (§1)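 Rat A1 affinity was measured on cortical membranes and rat A2A on striatal membranes from rat brain. Human A1, A2A, A2B and A3 subtypes were tested on membranes of CHO cells recombinantly expressing each receptor. No functional assays were run, as these xanthine-type compounds act only as blockers.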

rat A2A AR = molecular target: T2, rat A2A AR (Rattus norvegicus, UniProt P30543); assay: Radioligand binding assay at rat A2A AR (rat brain striatum) vs. [^3H]MSX-2; conditions: rat (r); for Ki: rat brain striatum, n = 3, read-out: Ki ± SEM, A2A vs. [^3H]MSX-2; for % inhibition of radioligand binding at indicated concentration, A2A vs. [^3H]MSX-2: at 1,000 nM
T2 construct: A2A ARs of rat brain striatal membrane preparations; from tissue; host or cells: rat brain striatum membranes
T2 sequence (P30543 whole entry): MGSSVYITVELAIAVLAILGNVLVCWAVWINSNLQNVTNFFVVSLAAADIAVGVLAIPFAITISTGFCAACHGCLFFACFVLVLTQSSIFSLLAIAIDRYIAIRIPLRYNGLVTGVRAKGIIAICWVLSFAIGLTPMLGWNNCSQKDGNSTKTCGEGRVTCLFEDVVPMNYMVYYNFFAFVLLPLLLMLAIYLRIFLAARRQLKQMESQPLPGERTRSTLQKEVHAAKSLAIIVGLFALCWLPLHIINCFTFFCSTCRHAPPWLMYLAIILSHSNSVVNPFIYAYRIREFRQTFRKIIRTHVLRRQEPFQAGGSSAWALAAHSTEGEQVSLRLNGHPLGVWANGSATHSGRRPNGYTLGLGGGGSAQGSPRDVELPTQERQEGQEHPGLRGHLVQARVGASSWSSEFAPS
In short: as §1

recombinant human MAO-A = molecular target: T3, recombinant human MAO-A (Homo sapiens, UniProt P21397); assay: Monoamine oxidase assay (Amplex Red), MAO-A; format: biochemical; conditions: for inhibition at 10 µM: at 10,000 nM, read-out: % inhibition at indicated concentration, Human MAO-A; for IC50: n = 3, read-out: IC50 ± SEM, Human MAO-A
T3 construct: purchased Sigma-Aldrich M7316; host or cells: baculovirus-infected insect cells
T3 sequence (P21397 1-527): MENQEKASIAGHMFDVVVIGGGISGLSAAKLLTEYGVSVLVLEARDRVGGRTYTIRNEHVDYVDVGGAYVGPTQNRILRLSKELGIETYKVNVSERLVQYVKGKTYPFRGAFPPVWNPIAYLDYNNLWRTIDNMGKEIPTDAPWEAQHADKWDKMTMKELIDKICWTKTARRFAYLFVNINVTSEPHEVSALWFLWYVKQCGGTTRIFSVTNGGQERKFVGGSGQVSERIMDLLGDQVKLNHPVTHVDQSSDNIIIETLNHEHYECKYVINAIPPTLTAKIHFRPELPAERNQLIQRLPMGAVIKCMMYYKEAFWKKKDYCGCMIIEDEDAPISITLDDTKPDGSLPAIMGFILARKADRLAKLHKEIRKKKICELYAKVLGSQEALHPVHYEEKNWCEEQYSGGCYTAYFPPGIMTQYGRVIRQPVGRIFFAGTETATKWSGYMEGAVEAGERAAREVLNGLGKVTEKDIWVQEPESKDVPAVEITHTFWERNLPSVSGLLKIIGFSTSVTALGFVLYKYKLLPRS
In short: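 Recombinant human MAO-A and MAO-B, expressed in baculovirus-infected insect cells, were assayed by Amplex Red fluorometric detection. Rat MAO-B inhibition used mitochondria-enriched fractions from male Sprague Dawley rat liver.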

[1] = Thermodynamic solubility measurements; format: physicochemical; conditions: thermodynamic from solid
Source text: This is expected to facilitate dissolution in the stomach. Depending on the substitution pattern they may also be well soluble at higher pH values (Brunschweiger et al., [2014]). In the present study we measured thermodynamic solubility of only very few compounds exemplarily (14a-e, 14g, 15f,g) and confirmed their high solubility at pH 1 (see Table S1 in Supplementary Material). Most of these compounds were still soluble at pH 7.4. The best soluble derivative was the 3-ethyl-1-methyl-8-m-fluorobenzyl derivative 14g with solubilities of >1.5 g/L (4.2 mM) at pH 1, 50 mg/L (0.14 mM) at pH 4, and 40 mg/L ([…]) at pH 7.4.
Table S1. Solubility of selected compounds at three different pH values (in mg/mL).a
Compound pH 1 pH 4 pH 7.4
adetermined by thermodynamic solubility measurements.

[2] = aqueous buffer, pH 4, thermodynamic solubility, read-out: Solubility, pH 4
[3] = aqueous buffer, pH 7.4, thermodynamic solubility, read-out: Solubility, pH 7.4
[4] = simulated gastric fluid, pH 1, thermodynamic solubility, read-out: Solubility, pH 1

| SMILES | Ki (human A2A AR) [nM] | Ki (rat A2A AR) [nM] | inhibition at 10 µM (recombinant human MAO-A) [%] | IC50 (recombinant human MAO-A) [nM] | other results |
| --- | --- | --- | --- | --- | --- |
| CCn1c(=O)c2c(nc3n2CCN(Cc2ccccc2C(F)(F)F)C3)n(C)c1=O [Compound 14d, 3-ethyl-1-methyl-8-(2-(trifluoromethyl)benzyl)-6,7,8,9-tetrahydropyrazino[2,1-f]purine-2,4(1H,3H)-dione] | – | > 1000 | 5 | > 10000 | % inhibition of radioligand binding at indicated concentration, A2A vs. [^3H]MSX-2 (rat A2A AR): 20%; solubility [1, 2]: 1 µg/mL; solubility [1, 3]: < 0.5 µg/mL; solubility [1, 4]: 200 µg/mL |
| CCn1c(=O)c2c(nc3n2CCN(Cc2cc(Br)ccc2F)C3)n(CC)c1=O [Compound 15l, 8-(5-bromo-2-fluorobenzyl)-1,3-diethyl-6,7,8,9-tetrahydropyrazino[2,1-f]purine-2,4(1H,3H)-dione] | 598 ± 92 | 756 ± 46 | 8 | > 10000 | – |
| CCn1c(=O)c2c(nc3n2CCN(Cc2cc(C(F)(F)F)ccc2F)C3)n(CC)c1=O [Compound 15j, 1,3-diethyl-8-(2-fluoro-5-(trifluoromethyl)benzyl)-6,7,8,9-tetrahydropyrazino[2,1-f]purine-2,4(1H,3H)-dione] | 781 ± 68 | 600 ± 54 | 7 | > 10000 | – |
| CCn1c(=O)c2c(nc3n2CCN(Cc2cc(C(F)(F)F)ccc2Cl)C3)n(C)c1=O [Compound 14m, 8-(2-chloro-5-(trifluoromethyl)benzyl)-3-ethyl-1-methyl-6,7,8,9-tetrahydropyrazino[2,1-f]purine-2,4(1H,3H)-dione] | 881 ± 96 | 592 ± 28 | 9 | > 10000 | – |
| CCn1c(=O)c2c(nc3n2CCN(Cc2ccc(F)c(Br)c2)C3)n(CC)c1=O [Compound 15k, 8-(3-bromo-4-fluorobenzyl)-1,3-diethyl-6,7,8,9-tetrahydropyrazino[2,1-f]purine-2,4(1H,3H)-dione] | 756 ± 271 | > 1000 | -10 | > 10000 | % inhibition of radioligand binding at indicated concentration, A2A vs. [^3H]MSX-2 (rat A2A AR): 30% |
| CCn1c(=O)c2c(nc3n2CCN(Cc2cccc(C(F)(F)F)c2F)C3)n(C)c1=O [Compound 14l, 3-ethyl-8-(2-fluoro-3-(trifluoromethyl)benzyl)-1-methyl-6,7,8,9-tetrahydropyrazino[2,1-f]purine-2,4(1H,3H)-dione] | 2020 | 667 ± 68 | 8 | > 10000 | – |
| CCn1c(=O)c2c(nc3n2CCN(Cc2cccc(F)c2)C3)n(C)c1=O [Compound 14g, 3-ethyl-8-(3-fluorobenzyl)-1-methyl-6,7,8,9-tetrahydropyrazino[2,1-f]purine-2,4(1H,3H)-dione] | – | > 1000 | – | – | % inhibition of radioligand binding at indicated concentration, A2A vs. [^3H]MSX-2 (rat A2A AR): 18%; solubility ([1]; aqueous solution, aqueous buffer, pH 4, molar value in brackets, read-out: solubility at pH 4): 140 µM; solubility ([1]; aqueous solution, aqueous buffer, pH 4, read-out: solubility at pH 4): 50 µg/mL; solubility ([1]; aqueous solution, aqueous buffer, pH 7.4, molar value in brackets, read-out: solubility at pH 7.4): 84 µM; solubility ([1]; aqueous solution, aqueous buffer, pH 7.4, read-out: solubility at pH 7.4): 40 µg/mL; solubility ([1]; aqueous solution, simulated gastric fluid, pH 1, molar value in brackets, read-out: solubility at pH 1): > 4200 µM; solubility ([1]; aqueous solution, simulated gastric fluid, pH 1, read-out: solubility at pH 1): > 1500 µg/mL |
| CCn1c(=O)c2c(nc3n2CCN(Cc2cc(Cl)ccc2Cl)C3)n(C)c1=O [Compound 14j, 8-(2,5-dichlorobenzyl)-3-ethyl-1-dimethyl-6,7,8,9-tetrahydropyrazino[2,1-f]purine-2,4(1H,3H)-dione] | 906 ± 73 | 617 ± 114 | 23 | > 10000 | – |
| CCn1c(=O)c2c(nc3n2CCN(Cc2cc(Cl)cc(Cl)c2)C3)n(CC)c1=O [Compound 15m, 8-(3,5-dichlorobenzyl)-1,3-diethyl-6,7,8,9-tetrahydropyrazino[2,1-f]purine-2,4(1H,3H)-dione] | 631 ± 122 | 2200 | 1 | > 10000 | – |
| CCn1c(=O)c2c(nc3n2CCN(Cc2cc(C(F)(F)F)ccc2Cl)C3)n(CC)c1=O [Compound 15n, 8-(2-chloro-5-(trifluoromethyl)benzyl)-1,3-diethyl-6,7,8,9-tetrahydropyrazino[2,1-f]purine-2,4(1H,3H)-dione] | 613 ± 34 | 871 ± 50 | -4 | > 10000 | – |
| CCn1c(=O)c2c(nc3n2CCN(Cc2cccc(Br)c2)C3)n(C)c1=O [Compound 14b, 8-(3-bromobenzyl)-3-ethyl-1-methyl-6,7,8,9-tetrahydropyrazino[2,1-f]purine-2,4(1H,3H)-dione] | – | 1140 | – | – | solubility [1, 2]: 1 µg/mL; solubility [1, 3]: 0.9 µg/mL; solubility [1, 4]: 100 µg/mL |
| CCn1c(=O)c2c(nc3n2CCN(Cc2cc(Br)ccc2F)C3)n(C)c1=O [Compound 14o, 8-(5-bromo-2-fluorobenzyl)-3-ethyl-1-methyl-6,7,8,9-tetrahydropyrazino[2,1-f]purine-2,4(1H,3H)-dione] | 1700 | 880 ± 174 | 15 | > 10000 | – |
| Cn1c(=O)c2c(nc3n2CCN(Cc2ccc(Cl)c(Cl)c2)C3)n(C2CC2)c1=O [Compound 17, 8-(3,4-dichlorobenzyl)-1-cyclopropyl-3-methyl-6,7,8,9-tetrahydropyrazino[2,1-f]purine-2,4(1H,3H)-dione] | – | 3940 | 7 | > 10000 | – |
| CCn1c(=O)c2c(nc3n2CCN(Cc2cc(F)c(F)c(F)c2)C3)n(CC)c1=O [Compound 15r, 1,3-diethyl-8-(3,4,5-trifluorobenzyl)-6,7,8,9-tetrahydropyrazino[2,1-f]purine-2,4(1H,3H)-dione] | 4110 | > 1000 | 7 | > 10000 | % inhibition of radioligand binding at indicated concentration, A2A vs. [^3H]MSX-2 (rat A2A AR): 36% |

Further lines, with some results ahead:

| Ki (human A2A AR) [nM] | Ki (rat A2A AR) [nM] | inhibition at 10 µM (recombinant human MAO-A) [%] | IC50 (recombinant human MAO-A) [nM] | SMILES | other results |
| --- | --- | --- | --- | --- | --- |
| 2230 | 1490 | 8 | > 10000 | CCn1c(=O)n(C)c(=O)c2c1nc1n2CCN(Cc2cc(Cl)cc(Cl)c2)C1 [Compound 16b, 8-(3,5-dichlorobenzyl)-1-ethyl-3-methyl-6,7,8,9-tetrahydropyrazino[2,1-f]purine-2,4(1H,3H)-dione] | – |
| 1620 | 1100 | 6 | > 10000 | CCn1c(=O)n(C)c(=O)c2c1nc1n2CCN(Cc2ccc(Cl)c(Cl)c2)C1 [Compound 16a, 8-(3,4-dichlorobenzyl)-1-ethyl-3-methyl-6,7,8,9-tetrahydropyrazino[2,1-f]purine-2,4(1H,3H)-dione] | – |
| 712 ± 129 | 414 ± 49 | 5 | > 10000 | C#CCn1c(=O)c2c(nc3n2CCN(Cc2cc(C(F)(F)F)ccc2Cl)C3)n(C)c1=O [Compound 19b, 8-(2-chloro-5-(trifluoromethyl)benzyl)-1-methyl-3-propargyl-6,7,8,9-tetrahydropyrazino[2,1-f]purine-2,4(1H,3H)-dione] | – |
| 289 ± 85 | 250 ± 80 | 6 | > 10000 | C#CCn1c(=O)c2c(nc3n2CCN(c2cccc(OC)c2)C3)n(CC)c1=O [Compound 20c, 1-ethyl-8-(3-methoxyphenyl)-3-propargyl-6,7,8,9-tetrahydropyrazino[2,1-f]purine-2,4(1H,3H)-dione] | – |
| 1580 | 642 ± 194 | 12 | > 10000 | C#CCn1c(=O)c2c(nc3n2CCN(Cc2ccc(Cl)c(Cl)c2)C3)n(C)c1=O [Compound 19a, 8-(3,4-dichlorobenzyl)-1-methyl-3-propargyl-6,7,8,9-tetrahydropyrazino[2,1-f]purine-2,4(1H,3H)-dione] | – |
